Reference: patent US8399214B2 (Evonik Degussa GmbH, priority 2005, dated 2013)
“And” between values parts separate entries of the source, which are not always exact repeats. Equal values may be shown once.

Test system: C. glutamicum M2014
Assay: Test tube growth in methionine-free medium with Amberlite XAD4 as DMDS delivery system
Procedure: To this end, test tube experiments using 5 ml of medium were performed on OM63 and M2014.
To each test tube 100 μl of a sterile suspension of XAD4 in water (50% v/v) was added.

For CSSC [DMDS, dimethyl disulfide], the “Optical densities at 600 nm” value (M2014, DMDS 0.1%, XAD4, 24 hours at 30° C.) was 4.4 and 4.3, the “Optical densities at 600 nm” value (M2014, DMDS 0.1%, XAD4, 42 hours at 30° C.) was 6.6 and the “Optical densities at 600 nm” value (M2014, DMDS 0.2%, XAD4, 24 hours at 30° C.) was 4.0 and 4.2. For the same compound, the “Optical densities at 600 nm” value (M2014, DMDS 0.2%, XAD4, 42 hours at 30° C.) was 6.9, the OD600 (M2014, DMDS 0.2%, XAD4, 60 hours at 30° C.) was 4.5 and 3.6 and the “Optical densities at 600 nm” value (M2014, DMDS 0.3%, XAD4, 24 hours at 30° C.) was 3.8 and 3.5. For the same compound, the “Optical densities at 600 nm” value (M2014, DMDS 0.3%, XAD4, 42 hours at 30° C.) was 7.3, the “Optical densities at 600 nm” value (M2014, DMDS 0.4%, XAD4, 24 hours at 30° C.) was 1.3 and 2.3 and the “Optical densities at 600 nm” value (M2014, DMDS 0.4%, XAD4, 42 hours at 30° C.) was 7.3. The “Optical densities at 600 nm” value (M2014, DMDS 0.5%, XAD4, 42 hours at 30° C.) was 5.5, the “maximum amount of DMDS that allowed cell growth” value (M2014, DMDS with Amberlite XAD4) was 0.4% and the “increase of the amount of DMDS that can be added before toxicity is observed” value (in the presence of Amberlite XAD4 versus direct addition) was 5 fold.
